Tests used:
[1] = system: Eotaxin-3 release in human whole blood stimulated with IL-4; experiment: Human Whole Blood Eotaxin-3 Assay (IL-4 stimulated eotaxin-3 release); format: cell-based; conditions: IL-4 stimulation, 48 h, values given for compounds with >80% Emax, geometric mean
How it was run: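 Eotaxin-3 (CCL26) release measured by MSD kit in plasma supernatant after 48 h IL-4 stimulation ([…]) of human whole blood. Compounds added in triplicate 4-fold dilutions 2 h before stimulation; 0.5% DMSO final, 37° C, 5% CO2.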

[2] = molecular target: T1, STAT6 (Homo sapiens, UniProt P42226); experiment: Stat6 Degrader Assay (HiBiT based, HeLa LgBiT clone 4.14); format: cell-based; conditions: HeLa LgBiT clone 4.14 HiBiT-STAT6, 4-24 h incubation; values given for compounds with >80% Emax; geometric mean; read-out: STAT6 degradation DC50
T1 construct: These cells express endogenous STAT6; host or cells: HeLa LgBiT clone 4.14
T1 sequence (P42226 1-847): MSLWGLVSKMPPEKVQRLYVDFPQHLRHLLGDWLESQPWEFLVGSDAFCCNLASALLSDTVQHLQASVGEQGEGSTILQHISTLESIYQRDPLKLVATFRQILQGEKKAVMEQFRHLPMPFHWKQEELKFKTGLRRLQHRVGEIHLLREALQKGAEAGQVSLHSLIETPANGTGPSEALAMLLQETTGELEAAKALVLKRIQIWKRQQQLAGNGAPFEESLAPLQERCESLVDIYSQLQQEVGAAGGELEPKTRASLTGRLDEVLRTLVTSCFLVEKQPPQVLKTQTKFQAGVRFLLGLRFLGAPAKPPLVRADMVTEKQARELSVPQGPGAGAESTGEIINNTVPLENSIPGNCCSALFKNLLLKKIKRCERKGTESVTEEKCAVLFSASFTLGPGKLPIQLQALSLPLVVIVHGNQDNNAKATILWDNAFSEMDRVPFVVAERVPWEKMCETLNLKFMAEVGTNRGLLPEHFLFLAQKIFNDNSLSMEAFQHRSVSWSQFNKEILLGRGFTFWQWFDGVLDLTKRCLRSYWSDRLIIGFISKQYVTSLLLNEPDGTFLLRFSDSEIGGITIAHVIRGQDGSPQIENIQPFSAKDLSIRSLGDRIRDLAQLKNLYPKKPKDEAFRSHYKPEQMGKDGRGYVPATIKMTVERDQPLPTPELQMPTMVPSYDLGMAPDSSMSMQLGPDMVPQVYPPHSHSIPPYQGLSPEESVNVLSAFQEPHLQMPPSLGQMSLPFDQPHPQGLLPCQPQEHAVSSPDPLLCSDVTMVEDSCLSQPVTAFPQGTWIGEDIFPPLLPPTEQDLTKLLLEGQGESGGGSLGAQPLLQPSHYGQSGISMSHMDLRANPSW
How it was run: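 Luminescence from HiBiT-STAT6 complementing stably expressed LgBiT in HeLa clone 4.14 reports remaining STAT6 protein. Cells (5000/well) exposed to compound for 4-24 h at 37° C; read 0.5 h after Nano-Glo addition. 100% degradation window set with 50 μM terfenadine; percent degradation plotted against concentration.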

SMILES	EC50 [1] [nM]	DC50 [2] [nM]
CNc1ccn(-c2ccnc3c2cc([C@H](C)N2CC=C(c4c(C)cc(C(=O)N5CCC(CN6CCN(c7cc8c(cc7F)n([C@@H]7CCC(=O)NC7=O)c(=O)n8C)CC6)CC5)cc4F)CC2)n3C)c(=O)c1 (single isomer, unassigned) [Example 3u308]	1.3	0.7
CNc1ccn(-c2ccnc3c2cc([C@H](C)N2CC=C(c4c(F)cc(C(=O)N5CCC(CN6CCN(Cc7ccc8c(c7)n(C7CC7)c(=O)n8[C@H]7CCC(=O)NC7=O)C[C@@H]6C)CC5)cc4F)CC2)n3C)c(=O)c1 (single isomer, unassigned) [Example 3u211]	0.5	0.5
CNc1ccn(-c2ccnc3c2cc(CN2CCC(c4c(F)cc(C(=O)N5CCC(CN6CCN(Cc7ccc8c(c7)C(C)(C)C(=O)N8[C@@H]7CCC(=O)NC7=O)C[C@@H]6C)CC5)cc4F)CC2)n3C)c(=O)c1 (single isomer, unassigned) [Example 3u206]	10.9	0.4
CNc1ccn(-c2ccnc3c2cc(CN2CCC(c4c(F)cc(C(=O)N5CCC(CN6CCN(Cc7ccc8c(c7)C(C)(C)C(=O)N8C7CCC(=O)NC7=O)C[C@@H]6C)CC5)cc4F)CC2)n3C)c(=O)c1 (stereo partly drawn) [Example 3u204, 3-(5-(((S)-4-((1-(3,5-difluoro-4-(1-((1-methyl-4-(4-(methylamino)-2-oxopyridin-1 (2H)-yl)-1H-pyrrolo[2,3-b]pyridin-2-yl)methyl)piperidin-4-yl)benzoyl)piperidin-4-yl)methyl)-3-methyl-piperazin-1-yl)methyl)-3,3-dimethyl-2-oxoindolin-1-yl)piperidine-2,6-dione]	4.6	2.5
CNc1ccn(-c2ccnc3c2cc([C@H](C)N2CC=C(c4c(C)cc(C(=O)N5CCC(CN6CCN(Cc7cc8c(cc7F)n([C@@H]7CCC(=O)NC7=O)c(=O)n8C)CC6)CC5)cc4F)CC2)n3C)c(=O)c1 (single isomer, unassigned) [Example 3u12]	0.5	0.6
CNc1ccn(-c2ccnc3c2cc([C@H](C)N2CC=C(c4c(C)cc(C(=O)N5CCC(CN6CCN(c7cc8c(cc7F)n(C7CCC(=O)NC7=O)c(=O)n8C)CC6)CC5)cc4F)CC2)n3C)c(=O)n1 (stereo partly drawn) [Example 3u256, 3-(6-fluoro-5-(4-((1-(3-fluoro-5-methyl-4-(1-((S)-1-(1-methyl-4-(4-(methylamino)-2-oxopyrimidin-1 (2H)-yl)-1H-pyrrolo[2,3-b]pyridin-2-yl)ethyl)-1,2,3,6-tetrahydropyridin-4-yl)benzoyl)piperidin-4-yl)methyl)piperazin-1-yl)-3-methyl-2-oxo-2,3-dihydro-1H-benzo[d]imidazol-1-yl)piperidine-2,6-dione]	0.8	2.5
CNc1cc(=O)n(-c2ccnc3c2cc(CN2CCC(c4c(F)cc(C(=O)N5CCC(CN6CCN(Cc7ccc8c(c7)C7(CC7)C(=O)N8[C@@H]7CCC(=O)NC7=O)C[C@@H]6C)CC5)cc4F)CC2)n3C)cc1F (single isomer, unassigned) [Example 3u221]	4.5	1.9
CNc1cc(=O)n(-c2ccnc3c2cc([C@H](C)N2CC=C(c4c(C)cc(C(=O)N5CCC(CN6CCN(c7ccc8c(c7)C(C)(C)C(=O)N8[C@H]7CCC(=O)NC7=O)CC6)CC5)cc4F)CC2)n3C)cc1F (single isomer, unassigned) [Example 3u285]	101	7.8
CN(C(=O)c1cc(F)c(C2CCN(Cc3cc4c(-n5cc(F)c6c(c5=O)CCN6)ccnc4n3C)CC2)c(F)c1)c1ccc(C2CCN(Cc3ccc4c(c3)n(C)c(=O)n4C3CCC(=O)NC3=O)CC2)cc1 (centres unmarked) [Example 3u126, N-(4-(1-((1-(2,6-dioxopiperidin-3-yl)-3-methyl-2-oxo-2,3-dihydro-1H-benzo[d]imidazol-5-yl)methyl)piperidin-4-yl)phenyl)-3,5-difluoro-4-(1-((4-(7-fluoro-4-oxo-1,2,3,4-tetrahydro-5H-pyrrolo[3,2-c]pyridin-5-yl)-1-methyl-1H-pyrrolo[2,3-b]pyridin-2-yl)methyl)piperidin-4-yl)-N-methylbenzamide]	0.2	0.4
CNc1cc(=O)n(-c2ccnc3c2cc([C@H](C)N2CC=C(c4c(C)cc(C(=O)N5CCC(CN6CCN(Cc7ccc8c(c7)C(C)(C)C(=O)N8C7CCC(=O)NC7=O)CC6)CC5)cc4F)CC2)n3C)cc1F (stereo partly drawn) [Example 3u87, 3-(5-((4-((1-(3-fluoro-4-(1-((S)-1-(4-(5-fluoro-4-(methylamino)-2-oxopyridin-1 (2H)-yl)-1-methyl-1H-pyrrolo[2,3-b]pyridin-2-yl)ethyl)-1,2,3,6-tetrahydropyridin-4-yl)-5-methylbenzoyl)piperidin-4-yl)methyl)piperazin-1-yl)methyl)-3,3-dimethyl-2-oxoindolin-1-yl)piperidine-2,6-dione]	15.2	3.5
CNc1cc(=O)n(-c2ccnc3c2cc(CN2CCC(c4c(F)cc(C(=O)N5CCC(CN6CCN(Cc7cc8c(cc7F)N([C@H]7CCC(=O)NC7=O)C(=O)C87CC7)CC6)CC5)cc4F)CC2)n3C)cc1F (single isomer, unassigned) [Example 3u94]	23.8	10.2
CNc1ccn(-c2ccnc3c2cc([C@H](C)N2CC=C(c4c(C)cc(C(=O)N(C)C5CCN(C6CCN(Cc7ccc8c(c7)n(C)c(=O)n8C7CCC(=O)NC7=O)CC6)CC5)cc4F)CC2)n3C)c(=O)c1 (stereo partly drawn) [Example 3u35, N-(1′-((1-(2,6-dioxopiperidin-3-yl)-3-methyl-2-oxo-2,3-dihydro-1H-benzo[d]imidazol-5-yl)methyl)-[1,4′-bipiperidin]-4-yl)-3-fluoro-N,5-dimethyl-4-(1-((S)-1-(1-methyl-4-(4-(methylamino)-2-oxopyridin-1 (2H)-yl)-1H-pyrrolo[2,3-b]pyridin-2-yl)ethyl)-1,2,3,6-tetrahydropyridin-4-yl)benzamide]	5.5	9.6
CNc1cc(=O)n(-c2ccnc3c2cc([C@H](C)N2CC=C(c4c(C)cc(C(=O)N5CCC(CN6CCN(c7ccc8c(c7)n(C)c(=O)n8[C@@H]7CCC(=O)NC7=O)CC6)CC5)cc4F)CC2)n3C)cc1F (single isomer, unassigned) [Example 3u297]	3.2	2.2
CNc1ccn(-c2ccnc3c2cc([C@H](C)N2CC=C(c4c(C)cc(C(=O)N5CCC(CN6CCN(Cc7cc8c(cc7F)N(C7CCC(=O)NC7=O)C(=O)C87CC7)C[C@@H]6C)CC5)cc4F)CC2)n3C)c(=O)c1 (stereo partly drawn) [Example 3u193, 3-(6′-fluoro-5′-(((S)-4-((1-(3-fluoro-5-methyl-4-(1-((S)-1-(1-methyl-4-(4-(methyl-amino)-2-oxopyridin-1 (2H)-yl)-1H-pyrrolo[2,3-b]pyridin-2-yl)ethyl)-1,2,3,6-tetrahydropyridin-4-yl)benzoyl)piperidin-4-yl)methyl)-3-methylpiperazin-1-yl)methyl)-2′-oxospiro[cyclopropane-1,3′-indolin]-1′-yl)piperidine-2,6-dione]	2.4	1.9
CNc1cc(=O)n(-c2ccnc3c2cc([C@H](C)N2CC=C(c4c(C)cc(C(=O)N5CCC(CN6CCN(Cc7ccc8c(c7)C(C)(C)C(=O)N8C7CCC(=O)NC7=O)C[C@@H]6C)CC5)cc4F)CC2)n3C)cc1F (stereo partly drawn) [Example 3u172, 3-(5-(((S)-4-((1-(3-fluoro-4-(1-((S)-1-(4-(5-fluoro-4-(methylamino)-2-oxopyridin-1 (2H)-yl)-1-methyl-1H-pyrrolo[2,3-b]pyridin-2-yl)ethyl)-1,2,3,6-tetrahydropyridin-4-yl)-5-methylbenzoyl)piperidin-4-yl)methyl)-3-methylpiperazin-1-yl)methyl)-3,3-dimethyl-2-oxoindolin-1-yl)piperidine-2,6-dione]	13.2	2.9
CNc1ccn(-c2ccnc3c2cc([C@H](C)N2CC=C(c4c(C)cc(C(=O)N5CCC(CN6CCN(Cc7ccc8c(c7)C7(CC7)C(=O)N8[C@H]7CCC(=O)NC7=O)C[C@@H]6C)CC5)cc4F)CC2)n3C)c(=O)c1 (single isomer, unassigned) [Example 3u191]	0.5	0.4

Source: US20250320206A1, “STAT6 DEGRADERS” (Gilead Sciences, Inc., priority 2024, published 2025)
